Source: patent publication US4537772A, “Enhancing absorption of drugs from gastrointestinal tract using acylcarnitines” (Merck & Co., Inc., priority 1984, dated 1985)

Columns and labels:
[1] = rat, in vivo
Method: (§1) Effect of palmitoylcarnitine chloride on the rectal absorption of drug entities. Experiments were performed with rats wherein each animal received an aqueous microenema applied to the rectal cavity. […] Blood levels were monitored and the amount of drug absorbed calculated against intravenous administration and expressed as percent bioavailability.
(§2) Concentration dependence of palmitoylcarnitine effect on rectal absorption of sodium cefoxitin, a β-lactam antibiotic. […] Blood samples were collected and assayed for sodium cefoxitin. The amount of drug absorbed is expressed as percent bioavailability as compared to intravenous administration.
(§3) Effect of various carnitine esters on rectal absorption of sodium cefoxitin, a β-lactam antibiotic, and cyclo(N-Ala-Tyr-D-Trp-Lys-Val-Phe)acetate, a polypeptide. […] Blood samples were collected and sodium cefoxitin or cyclo(N-AlA-TyR-D-Trp-Lys-Val-Phe)acetate assayed. The amount of drug absorbed is expressed as percent bioavailability versus intravenous administration.
(§4) Importance of carnitine-palmitoyl ester linkage in absorption promoting effects on rectal sodium cefoxitin absorption. […] Blood was collected and sodium cefoxitin measured. Absorption of sodium cefoxitin is expressed as percent bioavailability versus intravenous administration.

[2] = in vivo; conditions: rat
Method: as §1, §2, §3, §4

[3] = in vivo; conditions: rat; remark: listed apart in the source
Method: Effect of palmitoylcarnitine chloride on small intestinal absorption of polypeptides. Experiments were performed with rats wherein each animal received an aqueous solution applied to the duodenal region. […] Blood levels were monitored and the amount of polypeptide absorbed calculated against intravenous administration and expressed as percent bioavailability.

[4] = Rectal absorption of target drug from aqueous microenema, percent bioavailability versus intravenous administration; conditions: carnitine without acyl ester
Method: as §1, §2, §3, §4

Row | Compound | Percent Bioavailability (mean ± SD) Control [1] | Percent Bioavailability (mean ± SD) with Palmitoylcarnitine-Cl [1] | Sodium Cefoxitin Percent Bioavailability (mean ± SD) ([1]; pH 6) | other results
1 | CO[C@@]1(NC(=O)Cc2cccs2)C(=O)N2C(C(=O)O)=C(COC(N)=O)CS[C@@H]21 [Sodium cefoxitin] | 2 ± 1.1% | 68 ± 7.2% | 2 ± 1.1% | Percent Bioavailability (mean ± SD) Sodium Cefoxitin ([1]; pH 6): 2 ± 1.1%; Sodium Cefoxitin Percent Bioavailability mean ± SD ([1]; pH 6): 2 ± 1.1%
2 | Cn1c(=O)c2[nH]cnc2n(C)c1=O [Theophylline] | 75 ± 3.3% | 75 ± 2.6% |  | 
3 | CC(C)[C@@H]1NC(=O)[C@H](CCCCN)NC(=O)[C@@H](Cc2c[nH]c3ccccc23)NC(=O)[C@H](Cc2ccc(O)cc2)NC(=O)[C@H](C)N(C)C(=O)[C@H](Cc2ccccc2)NC1=O [#-363,586, cyclo(N--Me--Ala--Tyr--DTrp--Lys--Val--Phe)acetate] |  |  |  | bioavailability ([2]; 0.1 mg, pH 6, Percent Bioavailability (mean ± SD) Cyclo(N-Ala-Tyr-D-Trp-Lys-Val-Phe)acetate): 7 ± 3.5%; bioavailability ([2]; Percent Bioavailability (mean ± SD) Control): 7 ± 3.5%; bioavailability ([2]; Percent Bioavailability (mean ± SD) with Palmitoylcarnitine-Cl): 100 ± 28.2%; bioavailability [3]: 1%
4 | CCCCCCCCCCCCCCCC(=O)O [Palmitic acid] |  |  | 1 ± 0.8% | 
5 | Nc1ccn([C@@H]2O[C@H](CO)[C@@H](O)[C@@H]2O)c(=O)n1 [Cytarabine] | 0.5 ± 0.1% | 9 ± 0.6% |  | 
6 | C[N+](C)(C)CC(O)CC(=O)[O-] (stereo not shown) [Carnitine] |  |  | 1 ± 0.6% | absorption promoting effect of carnitine alone [4]: no effect
